Values of other authors, collected in patent US12350135B2, “Absorbent article with odor control composition” (The Procter & Gamble Company, priority 2021, dated 2025).
Structures can show the parent of a compound that is named as a salt.

Conditions: for water solubility: in water

Row | water solubility | Structure (SMILES) | solubility in water (in words)
1 | about 70% | [H]/N=C(\N/C(=N/[H])NCCCCCCNC(=N)NC(=N)Nc1ccc(Cl)cc1)Nc1ccc(Cl)cc1 [chlorhexidine digluconate salt, 1,1′-hexamethylene bis(5-(p-chlorophenyl)biguanide), reference compound] | –
2 | about 1.8% | [H]/N=C(\N/C(=N/[H])NCCCCCCNC(=N)NC(=N)Nc1ccc(Cl)cc1)Nc1ccc(Cl)cc1 [chlorhexidine diacetate salt, 1,1′-hexamethylene bis(5-(p-chlorophenyl)biguanide), reference compound] | –
3 | about 2.67% | OCCOc1ccccc1 [2-phenoxyethanol] | –
4 | about 2% | OCCc1ccccc1 [2-phenylethanol] | –
5 | about 4% | OCc1ccccc1 [benzyl alcohol] | –
6 | about 0.8% | CC(C)(O)C(Cl)(Cl)Cl [chlorobutanol, 1,1,1,-Trichloro-2-methylpropan-2-ol] | –
7 | about 0.46% | O=[N+]([O-])C1(Br)COCOC1 [Bronidox L, 5-bromo-5-nitro-1,3-dioxane] | –
8 | – | ClC=CC[N+]12CN3CN(CN(C3)C1)C2.[Cl-] [Dowicil 200, 1-(3-Chlorallyl)-3,5,7-triaza-1-azoniaadamantane chloride] | freely soluble in water

Row | Structure (SMILES) | water solubility | solubility in water (in words)
9 | [Na+].[O-][n+]1ccccc1[S-] [sodium pyrithione] | about 50% | –
10 | CC1(C)C(=O)N(CO)C(=O)N1CO [DMDM hydantoin, 1,3-bis(hydroxymethyl)-5,5-dimethyI-2,4-imidazolidinedione] | more than 50% | –
